Laboratory results from publication PMC2206373, “Identification of an altered peptide ligand based on the endogenously presented, rheumatoid arthritis-associated, human cartilage glycoprotein-39(263–275) epitope: an MHC anchor variant peptide for immune modulation” (Arthritis Research & Therapy, 2007).
No end group written: not given here.

Tests used:
[1] = tested on: T cell hybridoma 14G11; assay: T hybridoma 14G11 IL-2 response; type: cell-based, mouse; settings: for Hybridoma response (SI) 14G11: IL-2 by ELISA after 48 h, peptide 10 μg/ml, SI > 2 positive
Protocol: The T cell hybridomas, provided by G Sonderstrup (Stanford, CA, USA), were generated as described. In brief, human CD4, HLA-DRA*101/HLA-DRB*0401 triple transgenic (HLA-DR4trg) mice (devoid of I-Aβ) were immunized in the footpad with 50 μg of purified HC gp-39 mixed in incomplete Freund's adjuvant (IFA). Draining lymph nodes were isolated and T-cell hybridomas were generated by polyethylene glycol fusion of primed and in vitro antigen-restimulated lymph node cells with the AKR BW5147 fusion partner. Following fusion, growth-positive hybridoma wells were screened for reactivity to HC gp-39 and a set of 55 peptides (16 amino acids in length) covering the entire HC gp-39 sequence. HLA-DR4(B1*0401)-restricted hybridomas responsive to both the HC gp-39 protein and the immunodominant epitope 263–275 of HC gp-39 (for example, 5G11, 8B12, 14G11 and 20H5) were cloned, subcloned, characterised and selected for further study.
HC gp-39-specific IL-2 production by T hybridomas was measured in wells of round-bottomed microtiter plates. Hybridoma cells (2 to 5 × 10^4) and irradiated APC (0.5 to 1 × 10^5; 12,000 to 16,000 RAD) from the B lymphoblastoid cell line (BLCL) carrying the DRB1*0401 specificity were incubated in 150 μl volumes. Antigen was added in 50 μl volumes to duplicate wells. After 48 h, 100 μl of the culture supernatant was assayed for IL-2 production using a sandwich ELISA with Pharmingen antibodies specific for mouse IL-2. The antigen sensitivity of the hybridomas to both peptide and protein was determined (Figure 2). […] In later assays, an excess of peptide or APL (10 μg/ml), inducing maximal responses in all hybridomas, was tested.

[2] = tested on: popliteal lymph node cells from F265(Dip)-immunized HLA-DR4trg mice; assay: Antigen-specific proliferation of popliteal lymph node cells from F265(Dip)-immunized mice; type: cell-based, mouse; settings: Figure 4b
Protocol: Mice, obtained from L Fugger (Oxford, UK), were immunized in the hind footpads with 2 × 50 μg of purified recombinant HC gp-39, with 2 × 100 μg of the WT peptide or with 2 × 100 μg of the APL (F265(Dip); compound 28; Figure 1) mixed in IFA. Seven days later, popliteal lymph node cell suspensions (1 to 2 × 10^5 cells/well) were stimulated in vitro with HC gp-39 (50, 10 or 2 μg/ml), HC gp-39(263–275) or APL (10, 2 and 0.4 μg/ml). At 96 h, 50 μl of culture medium was harvested for analysis of antigen-specific cytokine production using Luminex technology (mouse cytokine 18 Plex Panel, catalogue no. 171-F11181, Biorad, Bio-Rad Laboratories, Hercules, CA, USA). In addition, cultures were labelled with tritiated thymidine (for 18 h) and antigen-specific proliferation was determined. We state that all animal experimentation received ethics approval and animals were treated according to the recognized guidelines.

## RSFTLASSETGVG [Compound 1, HC gp-39(263–275)]
[1]; Figure 1, IL-2 production, DRB1*0401 BLCL as APC, duplicate or triplicate, background 7,152 counts, ±30% of WT response = super/partial agonist
  T hybridoma (SI) 14G11: 35 SI
[1]; Figure 2a dose response, IL-2 ELISA after 48 h
  Peptide concentration for half maximal stimulation (IL-2), 14G11: 0.26 µg/mL
[1]; Table 1, DRB1*0401 BLCL as APC, background 8,598 counts, representative of at least three experiments
  Hybridoma response (SI) 14G11: 15 SI
[1]; Table 2, DRB1*0401 BLCL as APC, background 10,131 counts, SD not above 15%
  Hybridoma response (SI) 14G11: 30 SI
[2]
  In vitro recall proliferative response in words: somewhat less
